Where two headings read alike, the source gives them in different places.
How the values were obtained:
Assay type in all cases: cell-based
[1] = system: LNCaP (androgen sensitive prostate cancer cells); assay: Anti-proliferation activity against LNCaP cells; conditions: Homo sapiens, LNCaP, n = 3, read-out: IC50 LNCaP
Experimental: (§1) Upon completion of synthesis of library of compounds in Examples 23 and 24, the compounds were evaluated for anti-proliferative activity against SkBr3 (Her2 overexpressing breast cancer cells), MCF-7 (estrogen receptor positive breast cancer cells), HCT-116 (colon cancer cells characterized by wild-type p53), PL45 (pancreatic cancer cells), LNCaP (androgen sensitive prostate cancer cells) and PC-3 (androgen independent prostate cancer cells) cell lines. […] The monosubstituted benzamide variants improved activity.
(§2) Cells were maintained in a 1:1 mixture of Advanced DMEM/F12 (Gibco) supplemented with non-essential amino acids, L-glutamine (2 mM), streptomycin (500 ng/mL), penicillin (100 units/mL), and 10% FBS. Cells were grown to confluence in a humidified atmosphere (37° C., 5% CO2), seeded (2000/well, 100 μl) in 96-well plates, and allowed to attach overnight. Compound or GDA at varying concentrations in DMSO (1% DMSO final concentration) was added, and cells were returned to the incubator for 72 hours. At 72 hours, the number of viable cells was determined using an MTS/PMS cell proliferation kit (Promega) per the manufacturer's instructions. Cells incubated in 1% DMSO were used at 100% proliferation, and values were adjusted accordingly. IC50 values were calculated from separate experiments performed in triplicate using GraphPad Prism.

[2] = system: HCT-116 (colon cancer cells characterized by wild-type p53); assay: Anti-proliferation activity against HCT-116 cells; conditions: Homo sapiens
Experimental: as §1

[3] = system: MCF-7 (estrogen receptor positive breast cancer cells); assay: Anti-proliferation activity against MCF-7 cells (MTS/PMS); conditions: Homo sapiens, MCF7, n = 3, read-out: IC50 MCF-7
Procedure, shortened: (§3)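 Cells seeded at 2000/well, attached overnight, then exposed to compound at varying concentrations (1% DMSO final) for 72 hours at 37° C. Viable cells read by MTS/PMS, normalised to 1% DMSO as 100% proliferation. IC50 from separate triplicate experiments.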

[4] = system: SkBr3 (Her2 overexpressing breast cancer cells); assay: Anti-proliferation activity against SkBr3 cells (MTS/PMS); conditions: Homo sapiens, SK-BR-3, n = 3, read-out: IC50 SkBr3
Procedure, shortened: as §3

[5] = system: PC-3 (androgen independent prostate cancer cells); assay: Anti-proliferation activity against PC-3 cells; conditions: Homo sapiens, PC-3, n = 3, read-out: IC50 PC-3
Experimental: as §1
as §2, with “[…] […]” for “Compound or GDA at varying concentrations in DMSO (1% DMSO final concentration) was added, and cells were returned to the incubator for 72 hours. At 72 hours, the number of viable cells was determined using an MTS/PMS cell proliferation kit (Promega) per the manufacturer's instructions.”

[6] = system: PL45 (pancreatic cancer cells); assay: Anti-proliferation activity against PL45 cells
Experimental: as §1

[7] = Table 5, heterocyclic analogues
[8] = Table 5, heterocyclic analogues, n = 3
[9] = Table 4, biaryl analogues, n = 3

CO[C@@H]1[C@@H](O)[C@@H](O)[C@H](Oc2ccc3cc(NC(=O)c4ccccn4)c(=O)oc3c2C)OC1(C)C [compound 40, N-(7-((2R,3R,4S,5R)-3,4-Dihydroxy-5-methoxy-6,6-dimethyltetrahydro-2H-pyran-2-yloxy)-8-methyl-2-oxo-2H-chromen-3-yl)picolinamide]
IC50 [1, 7]: 44.9 ± 31.1 µM | IC50 [2, 8]: 23.3 ± 5.9 µM | IC50 [3, 7]: 20.3 ± 4.1 µM | IC50 [4, 7]: 28.4 ± 2 µM | IC50 [5, 7]: 15.1 ± 2.1 µM | IC50 [6, 8]: 7.9 ± 0.7 µM

COc1ccc(C(=O)Nc2cc3ccc(O[C@@H]4OC(C)(C)[C@H](OC)[C@@H](O)[C@H]4O)c(C)c3oc2=O)cc1-c1cccc2c1Sc1ccccc1S2 [compound 38, N-(7-((2R,3R,4S,5R)-3,4-Dihydroxy-5-methoxy-6,6-dimethyltetrahydro-2H-pyran-2-yloxy)-8-methyl-2-oxo-2H-chromen-3-yl)-4-methoxy-3-(thianthren-1-yl)benzamide]
IC50 ([1]; Table 4, biaryl analogues): 8.8 ± 0.6 µM | IC50 [2, 9]: > 100 µM | IC50 ([3]; Table 4, biaryl analogues): > 100 µM | IC50 ([4]; Table 4, biaryl analogues): > 100 µM | IC50 ([5]; Table 4, biaryl analogues): 1 ± 0.1 µM | IC50 [6, 9]: > 100 µM

COc1ccc(C(=O)Nc2cc3ccc(O[C@@H]4OC(C)(C)[C@H](OC)[C@@H](O)[C@H]4O)c(C)c3oc2=O)cc1-c1ccccc1C [compound 29, N-(7-((2R,3R,4S,5R)-3,4-Dihydroxy-5-methoxy-6,6-dimethyltetrahydro-2H-pyran-2-yloxy)-8-methyl-2-oxo-2H-chromen-3-yl)-6-methoxy-2′-methylbiphenyl-3-carboxamide]
IC50 ([1]; Table 4, biaryl analogues): 22.6 ± 3.3 µM | IC50 [2, 9]: 37.5 ± 3.4 µM | IC50 ([3]; Table 4, biaryl analogues): 18.9 ± 2.7 µM | IC50 ([4]; Table 4, biaryl analogues): 32.4 ± 5.1 µM | IC50 ([5]; Table 4, biaryl analogues): 64.7 ± 17.1 µM | IC50 [6, 9]: 6.8 ± 1.5 µM

COc1ccc(-c2cc(C(=O)Nc3cc4ccc(O[C@@H]5OC(C)(C)[C@H](OC)[C@@H](O)[C@H]5O)c(C)c4oc3=O)ccc2OC)cc1 [compound 34, N-(7-((2R,3R,4S,5R)-3,4-Dihydroxy-5-methoxy-6,6-dimethyltetrahydro-2H-pyran-2-yloxy)-8-methyl-2-oxo-2H-chromen-3-yl)-4′,6-dimethoxybiphenyl-3-carboxamide]
IC50 ([1]; Table 4, biaryl analogues): 3.3 ± 0.6 µM | IC50 [2, 9]: 24 ± 0.3 µM | IC50 ([3]; Table 4, biaryl analogues): 37.9 ± 2.3 µM | IC50 ([4]; Table 4, biaryl analogues): 7.8 ± 0.5 µM | IC50 ([5]; Table 4, biaryl analogues): 44 ± 20.3 µM | IC50 [6, 9]: 2.6 ± 0.5 µM

CO[C@@H]1[C@@H](O)[C@@H](O)[C@H](Oc2ccc3cc(NC(=O)c4ccc([N+](=O)[O-])cc4)c(=O)oc3c2C)OC1(C)C [compound 17, N-(7-((2R,3R,4S,5R)-3,4-Dihydroxy-5-methoxy-6,6-dimethyltetrahydro-2H-pyran-2-yloxy)-8-methyl-2-oxo-2H-chromen-3-yl)-4-nitrobenzamide]
IC50 ([1]; Table 2): 69.3 ± 4.1 µM | IC50 ([2]; Table 2, n = 3): > 100 µM | IC50 ([3]; Table 2): > 100 µM | IC50 ([4]; Table 2): > 100 µM | IC50 ([5]; Table 2): > 100 µM | IC50 ([6]; Table 2, n = 3): > 100 µM

CO[C@@H]1[C@@H](O)[C@@H](O)[C@H](Oc2ccc3cc(NC(=O)c4ccccc4-c4ccccc4)c(=O)oc3c2C)OC1(C)C [compound 12, N-(7-((2R,3R,4S,5R)-3,4-Dihydroxy-5-methoxy-6,6-dimethyltetrahydro-2H-pyran-2-yloxy)-8-methyl-2-oxo-2H-chromen-3-yl)biphenyl-2-carboxamide]
IC50 ([1]; Table 2): 17.3 ± 5.2 µM | IC50 ([2]; Table 2, n = 3): 32.7 ± 1.6 µM | IC50 ([3]; Table 2): 18.9 ± 7 µM | IC50 ([4]; Table 2): 39.1 ± 4.1 µM | IC50 ([5]; Table 2): 65.3 ± 5.6 µM | IC50 ([6]; Table 2, n = 3): 14.4 ± 2.4 µM

COc1ccc(C(=O)Nc2cc3ccc(O[C@@H]4OC(C)(C)[C@H](OC)[C@@H](O)[C@H]4O)c(C)c3oc2=O)cc1-c1cccc(C)c1 [compound 30, N-(7-((2R,3R,4S,5R)-3,4-Dihydroxy-5-methoxy-6,6-dimethyltetrahydro-2H-pyran-2-yloxy)-8-methyl-2-oxo-2H-chromen-3-yl)-6-methoxy-3′-methylbiphenyl-3-carboxamide]
IC50 ([1]; Table 4, biaryl analogues): 4.2 ± 1.2 µM | IC50 [2, 9]: 26.4 ± 0.6 µM | IC50 ([3]; Table 4, biaryl analogues): 20.4 ± 0.8 µM | IC50 ([4]; Table 4, biaryl analogues): 20.4 ± 3.5 µM | IC50 ([5]; Table 4, biaryl analogues): 50.7 ± 4.3 µM | IC50 [6, 9]: 4.2 ± 1 µM

CO[C@@H]1[C@@H](O)[C@@H](O)[C@H](Oc2ccc3cc(NC(=O)c4ccc(-c5ccccc5)cc4)c(=O)oc3c2C)OC1(C)C [compound 14, N-(7-((2R,3R,4S,5R)-3,4-Dihydroxy-5-methoxy-6,6-dimethyltetrahydro-2H-pyran-2-yloxy)-8-methyl-2-oxo-2H-chromen-3-yl)biphenyl-4-carboxamide]
IC50 ([1]; Table 2): 44.9 ± 31.6 µM | IC50 ([2]; Table 2, n = 3): 3.6 ± 2 µM | IC50 ([3]; Table 2): 8.1 ± 6 µM | IC50 ([4]; Table 2): 16.3 ± 1.6 µM | IC50 ([5]; Table 2): 19.3 ± 5.1 µM | IC50 ([6]; Table 2, n = 3): 1.6 ± 0.2 µM

CO[C@@H]1[C@@H](O)[C@@H](O)[C@H](Oc2ccc3cc(NC(=O)c4cccnc4)c(=O)oc3c2C)OC1(C)C [compound 41, N-(7-((2R,3R,4S,5R)-3,4-Dihydroxy-5-methoxy-6,6-dimethyltetrahydro-2H-pyran-2-yloxy)-8-methyl-2-oxo-2H-chromen-3-yl)nicotinamide]
IC50 [1, 7]: 50.1 ± 3.3 µM | IC50 [2, 8]: 37.3 ± 1 µM | IC50 [3, 7]: 47.8 ± 4.2 µM | IC50 [4, 7]: 65.9 ± 15.8 µM | IC50 [5, 7]: 67 ± 20.2 µM | IC50 [6, 8]: 13.2 ± 1 µM

COc1ccc(C(=O)Nc2cc3ccc(O[C@@H]4OC(C)(C)[C@H](OC)[C@@H](O)[C@H]4O)c(C)c3oc2=O)cc1-c1cccc(O)c1 [compound 36, N-(7-((2R,3R,4S,5R)-3,4-Dihydroxy-5-methoxy-6,6-dimethyltetrahydro-2H-pyran-2-yloxy)-8-methyl-2-oxo-2H-chromen-3-yl)-3′-hydroxy-6-methoxybiphenyl-3-carboxamide]
IC50 ([1]; Table 4, biaryl analogues): 2.5 ± 1.2 µM | IC50 [2, 9]: 4.5 ± 1.2 µM | IC50 ([3]; Table 4, biaryl analogues): 5.3 ± 1.5 µM | IC50 ([4]; Table 4, biaryl analogues): 2.9 ± 1.2 µM | IC50 ([5]; Table 4, biaryl analogues): 14.7 ± 2.4 µM | IC50 [6, 9]: 1.1 µM

CO[C@@H]1[C@@H](O)[C@@H](O)[C@H](Oc2ccc3cc(NC(=O)Cc4ccccc4)c(=O)oc3c2C)OC1(C)C [compound 22, N-(7-((2R,3R,4S,5R)-3,4-Dihydroxy-5-methoxy-6,6-dimethyltetrahydro-2H-pyran-2-yloxy)-8-methyl-2-oxo-2H-chromen-3-yl)-2-phenylacetamide]
IC50 ([1]; Table 3): 10.4 ± 0.2 µM | IC50 ([2]; Table 3, n = 3): 13.2 ± 0.6 µM | IC50 ([3]; Table 3): 16.4 ± 0.4 µM | IC50 ([4]; Table 3): 21.4 ± 2.2 µM | IC50 ([5]; Table 3): 43.3 ± 13.4 µM | IC50 ([6]; Table 3, n = 3): 8.5 ± 1.7 µM

CO[C@@H]1[C@@H](O)[C@@H](O)[C@H](Oc2ccc3cc(NC(=O)c4cccc(-c5ccccc5)c4)c(=O)oc3c2C)OC1(C)C [compound 13, N-(7-((2R,3R,4S,5R)-3,4-Dihydroxy-5-methoxy-6,6-dimethyltetrahydro-2H-pyran-2-yloxy)-8-methyl-2-oxo-2H-chromen-3-yl)biphenyl-3-carboxamide]
IC50 ([1]; Table 2): 1.6 ± 0.5 µM | IC50 ([2]; Table 2, n = 3): 12.8 ± 2.3 µM | IC50 ([3]; Table 2): 18 ± 3.8 µM | IC50 ([4]; Table 2): 13 ± 1.4 µM | IC50 ([5]; Table 2): 11.6 ± 1.4 µM | IC50 ([6]; Table 2, n = 3): 1.6 ± 0.2 µM

CO[C@@H]1[C@@H](O)[C@@H](O)[C@H](Oc2ccc3cc(NC(=O)CCc4ccccc4)c(=O)oc3c2C)OC1(C)C [compound 23, N-(7-((2R,3R,4S,5R)-3,4-Dihydroxy-5-methoxy-6,6-dimethyltetrahydro-2H-pyran-2-yloxy)-8-methyl-2-oxo-2H-chromen-3-yl)-3-phenylpropanamide]
IC50 ([1]; Table 3): 92.8 ± 0.9 µM | IC50 ([2]; Table 3, n = 3): 5.4 ± 0.6 µM | IC50 ([3]; Table 3): 6.9 ± 0.3 µM | IC50 ([4]; Table 3): 10.2 ± 2.3 µM | IC50 ([5]; Table 3): 22 ± 5.8 µM | IC50 ([6]; Table 3, n = 3): 9.8 ± 0.2 µM

CO[C@@H]1[C@@H](O)[C@@H](O)[C@H](Oc2ccc3cc(NS(=O)(=O)c4ccccc4)c(=O)oc3c2C)OC1(C)C [compound 21, N-(7-((2R,3R,4S,5R)-3,4-Dihydroxy-5-methoxy-6,6-dimethyltetrahydro-2H-pyran-2-yloxy)-8-methyl-2-oxo-2H-chromen-3-yl)benzenesulfonamide]
IC50 ([1]; Table 3): > 100 µM | IC50 ([2]; Table 3, n = 3): > 100 µM | IC50 ([3]; Table 3): > 100 µM | IC50 ([4]; Table 3): > 100 µM | IC50 ([5]; Table 3): > 100 µM | IC50 ([6]; Table 3, n = 3): > 100 µM

Source: patent US9120774B2 (University of Kansas, priority 2009, dated 2015)
